Laboratory results reported in the METLIN SMRT retention time set (Domingo-Almenara et al. 2019).

Assay: gradient 5% acetonitrile 3 min, to 50% in 2 min, to 85% in 15 min, held 3 min, 100 µL/min
Details: column: Zorbax Extend-C18 2.1 x 50 mm; eluents: water / acetonitrile, 0.1% formic acid
Procedure, shortened: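 Over 3 months, pure standards in mixtures of ~100 molecules were run by HPLC coupled to a quadrupole time-of-flight mass spectrometer in positive and negative ionization mode. The column was a Zorbax Extend-C18 (2.1 × 50 mm, 1.8 μm) at 100 μL/min, eluted with water and acetonitrile each holding 0.1% formic acid, with 40 μL dead and 900 μL dwell volumes. Retention time was determined from adduct peaks chosen by software and checked manually.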

RP-LC retention time [s] | SMILES
643 | CCOc1cccc2c(C)nc(NC3=NCN(CCOC)CN3)nc12
650 | O=C(NC1CCN(Cc2ccccc2)CC1)C1CCCN(C(=O)c2cccc(Cl)c2)C1 (stereo not drawn)
1170 | CCCC(=O)N1CCc2c([nH]c3ccccc23)C1c1ccc(SC)cc1 (stereo not drawn)
583 | Cc1ncoc1C(=O)NCC1Cn2cccc2C(=O)N1C (stereo not drawn)
763 | O=C(C1CC(=O)N(C2CCCCC2)C1)N1CCCCCC1 (stereo not drawn)
792 | CSc1ccc(CNC(=O)CC2CCN(C(=O)c3[nH]c(C)cc3C)CC2)cc1
562 | COc1ccc2c(c1)c(CN1CCC(C(=O)NCCN3CCCCC3)CC1)cn2C
697 | CCc1nnc(-c2cc(NC(=O)C3CCN(C(C)=O)CC3)c(C)s2)o1
559 | CCC(CC)CN1CCC(n2c(C)cnc2-c2ccccc2)C1 (stereo not drawn)
656 | COC[C@@H]1CN(Cc2cccc(OC)c2OC)C[C@H]1c1ccccn1
682 | Cc1cc(S(=O)(=O)N2CCN(c3nc4ccncc4n(C)c3=O)CC2)ccc1F
643 | COc1ccc(-c2nc(C)cc(C)c2CNS(=O)(=O)c2ccc(OC)cc2)cc1
988 | Cc1cc(C)cc(NC(=O)c2cnc(-c3ccccc3)nc2-c2ccncc2)c1
700 | CNC(=O)C1CCN(C(=O)Nc2ccc(NC(=O)Nc3ccc(C)c(C)c3)cc2)CC1
943 | CCCN(CC1CCOC1)S(=O)(=O)c1cc(F)ccc1C (stereo not drawn)
1160 | CCCN1C(=O)COc2ccc(-c3csc(NC(=O)c4ccc(Br)cc4)n3)cc21
570 | CNC(=O)C1CN(C(=O)c2ccc(OC)cc2)CC12CCCC2 (stereo not drawn)
754 | CC1CCN(C(=O)Cn2nc3nc(Nc4ccc(F)cc4)ccn3c2=O)CC1
558 | O=C(c1ccc2c(c1)OCO2)N1C[C@@H](CO)[C@H](c2ccncc2)C1
722 | Cc1nn(-c2ccc(C(=O)NCc3ccco3)cc2)cc1NC(=O)C(C)C
671 | COCC1CN(C(C)=O)CC12CCN(C(=O)C1CC=CCC1)CC2 (stereo not drawn)
840 | CC1(C(=O)NCc2ccccc2Cl)Cn2cnc(C(=O)NC3CCCCC3)c2C(=O)N1C1CC1 (stereo not drawn)
615 | Cc1nnc(CNC(=O)C(=O)Nc2ccc3c(c2)OCCO3)o1

RP-LC retention time [s] | SMILES
1110 | Fc1cc(F)cc(Cn2cccc2-c2nc(-c3ccncc3)no2)c1
708 | COC(=O)c1ccc(NC(=O)Cn2c(-c3cccnc3)nc3ccccc32)cc1
825 | O=C(CN1CCC2(CC1)N=C(c1ccc(Br)cc1)C(=O)N2)Nc1ccccc1
994 | O=C(Nc1cccc(F)c1)N1CCCC1c1nc(-c2cccc(F)c2)no1 (stereo not drawn)
812 | COc1ncc(C(=O)Nc2cccc(Cl)c2)c(C)n1
1020 | C=Cc1ccc(Cn2cc(S(=O)(=O)N3CCCCCC3)ccc2=O)cc1
635 | CCC(C)C(=O)N1CC(N(Cc2ccncc2)CC(C)C)C1 (stereo not drawn)
666 | NC(=O)C1CCN(C(=O)c2cc3cccnc3n(Cc3ccccc3F)c2=O)CC1
754 | O=C(NCCCN1CCCC1=O)c1ccc2nc(CCc3ccccc3)oc2c1
876 | Cc1[nH]c(C(=O)N2CCC(CC(=O)NCc3ccccc3Cl)CC2)c(C)c1C(=O)OC(C)C
629 | COc1cc(-c2nc3ccccn3c2Nc2ccc3c(c2)OCCO3)ccc1O
929 | CCC(C)NC(=O)c1c(C)sc2ccn(Cc3ccc(F)cc3)c(=O)c12 (stereo not drawn)
650 | c1ccc(-c2ccc3c(c2)NCCN3)cc1
627 | Cc1cc(N2CCN(C(=O)c3cccc(C(F)(F)F)c3)CC2)nc2nncn12
914 | CC(C)Cc1ccc(S(=O)(=O)N(C)C2CCc3nn(CC4CC4)c(=O)n3CC2)cc1 (stereo not drawn)
926 | O=C(Cc1ccc(F)cc1)Nc1cc(-c2cccs2)no1
612 | O=C1NCCCCCCN[C@H]2C[C@H](C(=O)N3CCc4ccccc4C3)C[C@@H]12
623 | CCOc1ccc(S(=O)(=O)N(CC)CC(=O)N2CCNCC2)cc1
788 | CCn1cc(CCNC(=O)Nc2cccc(Cl)c2)c2cccnc21
680 | CSc1nnc(-c2nn(C)c3c2CN(C(=O)c2ccccc2)CC3)n1C
974 | Cc1cccc(NC(=O)N2CCc3nc(-c4ccc(F)cc4)ncc3C2)c1C
615 | CCNC(=O)C(=O)NCC(c1ccc2c(c1)CCCN2C)N1CCCC1 (stereo not drawn)
787 | Cc1ccc(CN2C(=O)NC3(CCN(C(=O)c4cccn4C)CC3)C2=O)cc1

RP-LC retention time [s] | SMILES
747 | O=C([C@@H]1C[C@H](F)CN1C(=O)NCc1ccc(F)cc1)N1CCc2ccccc2C1
648 | Cc1ccc(-n2nc3c(=O)n(CCCC(=O)N4CCC(C(N)=O)CC4)nc(C)c3c2C)cc1
1050 | COC(=O)c1c(-c2ccccc2)noc1NCc1ccccc1
726 | COc1cc(NC(=O)Cn2ccc3ccc(-c4nnc(C)o4)cc32)cc(OC)c1OC
1000 | Cc1ccc(Cl)cc1N1CCN(c2ccc3cc(S(=O)(=O)N4CCCCC4)ccc3n2)CC1
804 | COC(=O)C(C)NC(=O)NCc1cccn1Cc1ccccc1F (stereo not drawn)
1360 | O=C(Nc1ccc(Cl)cc1Cl)c1ccc(Br)cc1F
913 | Cc1ccc(NC(=O)N2CCC(n3cnc4ccc(Cl)cc4c3=O)CC2)cc1C
603 | COc1ccccc1C(=O)NCc1ccc2c(c1)ncn2C(C)C
1010 | Cc1ccc(Oc2nccn3c(=O)n(CC(=O)Nc4ccc(C)c(Cl)c4)nc23)cc1
783 | CCCCCn1c(SCC(=O)OCC)nc2cc(C(=O)N3CCC(C(N)=O)CC3)ccc2c1=O
747 | Cc1ccc(F)cc1NS(=O)(=O)c1c[nH]c2ncccc12
638 | O=C(Nc1ccc(N2CCN(C3CCCC3)C2=O)nc1)c1cccnc1
793 | N=C(CC(O)COc1ccccc1-c1ccccc1)N1CCCCC1 (stereo not drawn)
862 | CC1=C(C(=O)OCCc2ccccc2)C(c2ccc(F)cc2)NC(=O)N1 (stereo not drawn)
623 | CS(=O)(=O)NC1(CC2CC2)CCN(Cc2cn[nH]c2-c2ccc(F)cc2)CC1
958 | CCOC(=O)Cn1nc2c(-c3nc(-c4ccc(Cl)cc4)no3)cccn2c1=O
652 | O=C(NCC1CCN(S(=O)(=O)C2CC2)CC1)c1ccccn1
610 | COC(=O)c1c(NCCO)c2cccc(Cl)c2[nH]c1=O
880 | CC(=O)c1cccc(NC(=O)CN2CCCN(Cc3cccc(F)c3)S2(=O)=O)c1
703 | CS(=O)(=O)N1CCC(OC2CCN(C(=O)Nc3ccccc3F)CC2)CC1
789 | COc1ccc(C2CC(=O)N(c3ccc4c(c3)OCCO4)C(=O)C2)cc1OC
